Measured values as given in ChEMBL document CHEMBL1949621, “Fluorocyclines. 1. 7-fluoro-9-pyrrolidinoacetamido-6-demethyl-6-deoxytetracycline: a potent, broad spectrum antibacterial agent” (J Med Chem, 2012).
Converted amounts (≈) assume the structure as drawn.

What was measured:
Staphylococcus aureus [1] = assay: Antibacterial activity against tetracycline-resistant Staphylococcus aureus 191 infected in iv dosed CD-1 mouse assessed as dose required for 1 log bacterial burden reduction administered 1.5 hr post infection measured after 24 hrs; format: functional
Staphylococcus aureus [2] = assay: Antibacterial activity against tetracycline-resistant Staphylococcus aureus 191 infected in iv dosed CD-1 mouse assessed as dose required for 3 log bacterial burden reduction administered 1.5 hr post infection measured after 24 hrs; format: functional
Rattus norvegicus = assay: (§1) Clearance in Sprague-Dawley rat at 1 mg/kg, iv by LC/MS-MS analysis; format: ADME, organism-based; set-up: dose 1 mg/kg, route intravenous; details: in vivo
[3] = Oral bioavailability in Sprague-Dawley rat at 10 mg/kg by LC/MS-MS analysis; format: ADME, organism-based; details: in vivo
Enterococcus faecalis [4] = assay: Antibacterial activity against Enterococcus faecalis ATCC 103 29212; format: functional
Pseudomonas aeruginosa = assay: Antibacterial activity against Pseudomonas aeruginosa ATCC 111 27853; format: functional
[5] = AUClast in Sprague-Dawley rat at 10 mg/kg, po by LC/MS-MS analysis; format: ADME, organism-based; set-up: dose 10 mg/kg, route oral, time 0 - last; details: plasma
Klebsiella pneumoniae [6] = assay: Antibacterial activity against tetracycline-resistant Klebsiella pneumoniae 153; format: functional
Staphylococcus aureus [7] = assay: Antibacterial activity against tetracycline- and methicillin-resistant Staphylococcus aureus 161; format: functional
Acinetobacter baumannii [8] = assay: Antibacterial activity against Acinetobacter baumannii ATCC 19606 110; format: functional
[9] = Oral bioavailability in human; format: ADME, organism-based; details: in vivo
Streptococcus pneumoniae [10] = assay: microbe, parasite or virus in culture; format: functional; details: ATCC 106 49619
Description: Antibacterial activity against Streptococcus pneumoniae ATCC 106 49619

Escherichia coli [11] = assay: Antibacterial activity against tetracycline-resistant Escherichia coli 155; format: functional
Escherichia coli [12] = assay: Antibacterial activity against Escherichia coli ATCC 107 25922; format: functional
Klebsiella pneumoniae [13] = assay: Antibacterial activity against Klebsiella pneumoniae ATCC 109 13883; format: functional
Enterobacter cloacae = assay: Antibacterial activity against Enterobacter cloacae ATCC 108 13047; format: functional
Staphylococcus aureus [14] = assay: Antibacterial activity against Staphylococcus aureus ATCC 101 29213; format: functional
Bacterial 70S ribosome = assay: Inhibition of Escherichia coli ribosome-mediated translation after 60 mins by transcription/translation-coupled luciferase reporter gene assay; format: subcellular
[15] = AUClast in Sprague-Dawley rat at 1 mg/kg, iv by LC/MS-MS analysis; format: ADME, organism-based; set-up: time 0 - last, dose 1 mg/kg, route intravenous; details: plasma
Enterococcus faecalis [16] = assay: Antibacterial activity against tetracycline-resistant Enterococcus faecalis 159; format: functional
Staphylococcus aureus [17] = assay: microbe, parasite or virus in culture; format: functional; details: 158
Streptococcus pneumoniae [18] = assay: Antibacterial activity against tetracycline-resistant Streptococcus pneumoniae 160; format: functional
Staphylococcus aureus [19] = assay: Antibacterial activity against tetracycline-resistant Staphylococcus aureus 191 infected in iv dosed CD-1 mouse assessed as reduction in bacterial burden administered 1.5 hr post infection measured after 24 hrs; format: functional
[20] = as §1; format: ADME, organism-based; set-up: dose 1 mg/kg, route intravenous; details: Sprague-Dawley, in vivo
Escherichia coli [21] = assay: Ratio of tigecycline MIC to compound MIC for Escherichia coli ATCC 107 25922; format: functional
Staphylococcus aureus [22] = assay: Ratio of tigecycline MIC to compound MIC for Staphylococcus aureus ATCC 101 29213; format: functional
Acinetobacter baumannii [23] = assay: Ratio of tigecycline MIC to compound MIC for Acinetobacter baumannii ATCC 19606 110; format: functional
Escherichia coli [24] = assay: Antibacterial activity against tetracycline-resistant Escherichia coli 133 infected in iv dosed CD-1 mouse assessed as protection from infection administered 1 hr post infection measured after 24 hrs; format: functional; details: Escherichia coli, 133, iv; read-out: PD50
Enterococcus faecalis [25] = assay: Ratio of tigecycline MIC to compound MIC for Enterococcus faecalis ATCC 103 29212; format: functional
[26] = Elimination half life in Sprague-Dawley rat at 1 mg/kg, iv by LC/MS-MS analysis; format: ADME, organism-based; set-up: dose 1 mg/kg, route intravenous; details: in vivo, read-out: beta t1/2 (converted)
[27] = Apparent volume of distribution in Sprague-Dawley rat at 1 mg/kg, iv by LC/MS-MS analysis; details: in vivo
Escherichia coli [28] = assay: Ratio of tetracycline IC50 to compound IC50 for Escherichia coli ribosome-mediated translation; format: subcellular
Escherichia coli [29] = assay: Antibacterial activity against tetracycline-resistant Escherichia coli 133 infected in iv dosed CD-1 mouse assessed as reduction in bacterial burden administered 1 hr post infection measured after 24 hrs; format: functional
[30] = Elimination half life in Sprague-Dawley rat at 10 mg/kg, po by LC/MS-MS analysis; format: ADME, organism-based; set-up: dose 10 mg/kg, route oral; details: in vivo, read-out: beta t1/2 (converted)

SMILES | Activity (Staphylococcus aureus [1]) | Activity (Staphylococcus aureus [2]) | bioavailability [3] | MIC (Enterococcus faecalis [4]) | MIC (Pseudomonas aeruginosa) | AUC(0-t) [5] | MIC (Klebsiella pneumoniae [6]) | MIC (Staphylococcus aureus [7]) | MIC (Acinetobacter baumannii [8]) | MIC (Streptococcus pneumoniae [10]) | MIC (Escherichia coli [11]) | MIC (Escherichia coli [12]) | MIC (Klebsiella pneumoniae [13]) | MIC (Enterobacter cloacae) | MIC (Staphylococcus aureus [14]) | AUC(0-t) [15] | MIC (Enterococcus faecalis [16]) | MIC (Staphylococcus aureus [17]) | MIC (Streptococcus pneumoniae [18]) | also measured
CN[C@H](CC(C)C)C(=O)N[C@H]1C(=O)N[C@@H](CC(N)=O)C(=O)N[C@H]2C(=O)N[C@H]3C(=O)N[C@H](C(=O)N[C@H](C(=O)O)c4cc(O)cc(O)c4-c4cc3ccc4O)[C@H](O)c3ccc(c(Cl)c3)Oc3cc2cc(c3O[C@@H]2O[C@H](CO)[C@@H](O)[C@H](O)[C@H]2O[C@H]2C[C@](C)(N)[C@H](O)[C@H](C)O2)Oc2ccc(cc2Cl)[C@H]1O [VANCOMYCIN] | 0.75 mg/kg | 10 mg/kg |  |  |  |  |  |  |  |  |  |  |  |  |  |  |  |  |  | 
CN(C)[C@@H]1C(O)=C(C(N)=O)C(=O)[C@@]2(O)C(O)=C3C(=O)c4c(O)cccc4[C@@](C)(O)[C@H]3C[C@@H]12 [TETRACYCLINE] |  |  | 14.9% | 16 µg/mL (≈ 36 µM) | 16 µg/mL (≈ 36 µM) | 4540 ng·h/mL | > 64 µg/mL | 64 µg/mL (≈ 144 µM) | 1 µg/mL (≈ 2.25 µM) | 0.25 µg/mL (≈ 0.563 µM) | > 64 µg/mL | > 1 µg/mL | 2 µg/mL (≈ 4.5 µM) | 1 µg/mL (≈ 2.25 µM) | 0.125 µg/mL (≈ 0.281 µM) | 3080 ng·h/mL | 64 µg/mL (≈ 144 µM) |  |  | CL (Rattus norvegicus): 9.03 mL/min/kg; bioavailability [9]: 60%; IC50 (Bacterial 70S ribosome): 4580 nM
COC[C@@H]1CCCN1CC(=O)Nc1cc(F)c2c(c1O)C(=O)C1=C(O)[C@]3(O)C(=O)C(C(N)=O)=C(O)[C@@H](N(C)C)[C@@H]3C[C@@H]1C2 |  |  |  | 1 µg/mL (≈ 1.66 µM) | > 32 µg/mL |  | 16 µg/mL (≈ 26.6 µM) | 2 µg/mL (≈ 3.32 µM) | 0.5 µg/mL (≈ 0.83 µM) | 0.125 µg/mL (≈ 0.207 µM) | 16 µg/mL (≈ 26.6 µM) | 4 µg/mL (≈ 6.64 µM) | 8 µg/mL (≈ 13.3 µM) | 16 µg/mL (≈ 26.6 µM) | 1 µg/mL (≈ 1.66 µM) |  | 2 µg/mL (≈ 3.32 µM) | 1 µg/mL (≈ 1.66 µM) | 0.125 µg/mL (≈ 0.207 µM) | 
CN(C)[C@@H]1C(O)=C(C(N)=O)C(=O)[C@@]2(O)C(O)=C3C(=O)c4c(O)c(NC(=O)CN5CCCC5)cc(F)c4C[C@H]3C[C@@H]12 [ERAVACYCLINE] | 0.6 mg/kg | 3 mg/kg | 1.7% | 0.0156 µg/mL (≈ 0.0279 µM) | 8 µg/mL (≈ 14.3 µM) | 295 ng·h/mL | 0.5 µg/mL (≈ 0.895 µM) | 0.0156 µg/mL (≈ 0.0279 µM) | 0.0312 µg/mL (≈ 0.0559 µM) | 0.0156 µg/mL (≈ 0.0279 µM) | 1 µg/mL (≈ 1.79 µM) | 0.0156 µg/mL (≈ 0.0279 µM) | 0.125 µg/mL (≈ 0.224 µM) | 0.125 µg/mL (≈ 0.224 µM) | 0.0156 µg/mL (≈ 0.0279 µM) | 1770 ng·h/mL | 0.0156 µg/mL (≈ 0.0279 µM) | 0.0156 µg/mL (≈ 0.0279 µM) | 0.0156 µg/mL (≈ 0.0279 µM) | MIC (Staphylococcus aureus [19]): 0.25 µg/mL (≈ 0.448 µM); clearance [20]: 9.4 mL/min/kg; Ratio (Escherichia coli [21]): 4; Ratio (Staphylococcus aureus [22]): 4; Ratio (Acinetobacter baumannii [23]): 4; ED50 (Escherichia coli [24]): 1.3 mg/kg; Ratio (Enterococcus faecalis [25]): 4; half-life [26]: 4 h; Vd [27]: 3.2 L/kg; IC50 (Bacterial 70S ribosome): 620 nM; Ratio IC50 (Escherichia coli [28]): 7; MIC (Escherichia coli [29]): 0.125 µg/mL (≈ 0.224 µM); half-life [30]: 6.9 h
CN(C)[C@@H]1C(O)=C(C(N)=O)C(=O)[C@@]2(O)C(O)=C3C(=O)c4c(O)c(NC(=O)CNC(C)(C)C)cc(F)c4C[C@H]3C[C@@H]12 |  |  |  | 0.0625 µg/mL (≈ 0.111 µM) | 16 µg/mL (≈ 28.5 µM) |  | 2 µg/mL (≈ 3.57 µM) | 0.25 µg/mL (≈ 0.446 µM) | 0.5 µg/mL (≈ 0.892 µM) | 0.0156 µg/mL (≈ 0.0278 µM) | 2 µg/mL (≈ 3.57 µM) | 0.25 µg/mL (≈ 0.446 µM) | 1 µg/mL (≈ 1.78 µM) | 1 µg/mL (≈ 1.78 µM) | 0.125 µg/mL (≈ 0.223 µM) |  | 0.125 µg/mL (≈ 0.223 µM) | 0.0625 µg/mL (≈ 0.111 µM) | 0.0156 µg/mL (≈ 0.0278 µM) | 
CN(C)c1cc(NC(=O)CNC(C)(C)C)c(O)c2c1C[C@H]1C[C@H]3[C@H](N(C)C)C(O)=C(C(N)=O)C(=O)[C@@]3(O)C(O)=C1C2=O [TIGECYCLINE] | 3 mg/kg | 17.3 mg/kg | 1% | 0.0625 µg/mL (≈ 0.107 µM) | 16 µg/mL (≈ 27.3 µM) | 107 ng·h/mL | 1 µg/mL (≈ 1.71 µM) | 0.125 µg/mL (≈ 0.213 µM) | 0.5 µg/mL (≈ 0.854 µM) | 0.0156 µg/mL (≈ 0.0266 µM) | 1 µg/mL (≈ 1.71 µM) | 0.125 µg/mL (≈ 0.213 µM) | 0.25 µg/mL (≈ 0.427 µM) | 0.25 µg/mL (≈ 0.427 µM) | 0.0625 µg/mL (≈ 0.107 µM) | 1050 ng·h/mL | 0.0625 µg/mL (≈ 0.107 µM) | 0.125 µg/mL (≈ 0.213 µM) | 0.0156 µg/mL (≈ 0.0266 µM) | MIC (Staphylococcus aureus [19]): 0.25 µg/mL (≈ 0.427 µM); ED50 (Escherichia coli [24]): 3.5 mg/kg; MIC (Escherichia coli [29]): 0.125 µg/mL (≈ 0.213 µM); half-life [30]: 3.98 h
CN(C)[C@@H]1C(O)=C(C(N)=O)C(=O)[C@@]2(O)C(O)=C3C(=O)c4c(O)c(NC(=O)CNCC(F)(F)F)cc(F)c4C[C@H]3C[C@@H]12 |  |  |  | 2 µg/mL (≈ 3.41 µM) | > 32 µg/mL |  | > 32 µg/mL | 2 µg/mL (≈ 3.41 µM) | > 2 µg/mL | 0.5 µg/mL (≈ 0.853 µM) | > 32 µg/mL | > 16 µg/mL | 32 µg/mL (≈ 54.6 µM) | > 32 µg/mL | 1 µg/mL (≈ 1.71 µM) |  | 4 µg/mL (≈ 6.82 µM) | 4 µg/mL (≈ 6.82 µM) | 1 µg/mL (≈ 1.71 µM) | 
